Laboratory results as given in US11352350B2, “IRAK degraders and uses thereof” (Kymera Therapeutics, Inc., priority 2018, dated 2022).
pIC50: −log10 of the molar value. Like-named read-outs stand apart in the source and are kept apart here.

Tests used:
IRAK4 = IRAK4 (Homo sapiens (Human), UniProt Q9NWZ3); test: IRAK4 MSD degradation in OCI-LY10; format: cell-based
Summary of the method: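 OCI-LY10 cells treated with 8-point 1:3 dilutions (top 1 to 10 μM final) for 4 to 24 h at 37° C. Lysate IRAK4 measured by MSD sandwich immunoassay (2H9 capture, Y279 detection, SULFO-TAG anti-rabbit). DC50 from three-parameter logistic fit.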

OCI-LY10 = test: CTG Cell Viability Assay - OCI-LY10; format: cell-based, human; details: Homo sapiens, OCI-Ly10, 96 h, OCI-LY10, 4 days; read-out: CTG Cell Viability Assay - OCI-LY10: Average external-IC50
Summary of the method: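 OCI-LY10 cells exposed to 9-dose, 1:3 dilutions from 10 μM top (0.2% DMSO) for 4 days at 37° C, 5% CO2. Viability by CellTiter-Glo luminescence; IC50 from three-parameter logistic fit.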

[1] = OCI-LY10, 4 hrs, MSD, read-out: IRAK4 MSD degradation in OCI-LY10 at 4 hrs: Average external-Abs DC50
[2] = OCI-LY10, 24 hrs, MSD, read-out: IRAK4 MSD degradation in OCI-LY10 at 24 hrs: Average external-Abs DC50
[3] = OCI-LY10, 4 hrs, read-out: IRAK4 MSD degradation in OCI-LY10 at 4 hrs: DC50

Sequence of IRAK4 (Q9NWZ3 whole entry): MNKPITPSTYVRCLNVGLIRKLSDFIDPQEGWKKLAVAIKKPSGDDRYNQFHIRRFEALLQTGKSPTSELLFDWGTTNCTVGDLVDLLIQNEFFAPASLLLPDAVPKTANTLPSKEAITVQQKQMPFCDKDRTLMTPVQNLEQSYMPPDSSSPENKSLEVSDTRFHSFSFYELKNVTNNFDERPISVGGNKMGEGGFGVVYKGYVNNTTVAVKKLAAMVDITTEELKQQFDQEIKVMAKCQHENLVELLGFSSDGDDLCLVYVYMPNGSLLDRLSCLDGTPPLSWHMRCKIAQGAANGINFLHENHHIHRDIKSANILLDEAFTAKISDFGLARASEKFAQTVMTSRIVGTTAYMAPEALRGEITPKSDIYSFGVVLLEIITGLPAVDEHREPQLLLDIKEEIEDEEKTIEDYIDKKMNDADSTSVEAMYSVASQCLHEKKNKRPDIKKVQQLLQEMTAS

| SMILES | DC50 (IRAK4; [1]) [nM] | DC50 (IRAK4; [2]) [nM] | pIC50 (OCI-LY10) | DC50 (IRAK4; [3]) [nM] | DC50 (IRAK4; OCI-LY10, 24 hrs, read-out: IRAK4 MSD degradation in OCI-LY10 at 24 hrs: DC50) [nM] |
| --- | --- | --- | --- | --- | --- |
| CN(CCCOCCCNC(=O)c1ccc(CNCc2ccc(-c3ccc4c(cnn4CC4CC4)c3)cc2)cc1)C[C@H]1CC[C@H](n2cc(NC(=O)c3coc(-c4ccnc(NCC5CC5)c4)n3)c(C(F)F)n2)CC1 [I-131] | > 1000 | > 1000 | < 6.00 |  |  |
| O=C1CCC(N2C(=O)c3cccc(NCCc4ccc(C5CCN(C[C@H]6CC[C@H](n7cc(NC(=O)c8cnn9ccc(N%10C[C@H]%11C[C@@H]%10CO%11)nc89)c(C(F)F)n7)CC6)CC5)cc4)c3C2=O)C(=O)N1 (stereo partly shown) [I-362] | 100 to 1000 | 10 to 100 | 6.00 to 6.30 |  |  |
| CN(CC1CCN(Cc2ccc3c(c2)n(C)c(=O)n3C2CCC(=O)NC2=O)CC1)C[C@H]1CC[C@H](n2cc(NC(=O)c3coc(-c4ccnc(NCC5CC5)c4)n3)c(C(F)F)n2)CC1 (stereo partly shown) [I-127] | < 10 | < 10 | < 6.00 |  |  |
| Cn1c(=O)n(C2CCC(=O)NC2=O)c2cccc(CCCOC3CCN([C@H]4CC[C@@H](Nc5ncnc6ccc(C#N)cc56)CC4)CC3)c21 (stereo partly shown) [I-305, 4-[[4-[4-[3-[1-(2,6-dioxo-3-piperidyl)-3-methyl-2-oxo-benzimidazol-4-yl]propoxy]-1-piperidyl]cyclohexyl]amino]quinazoline-6-carbonitrile] | > 1000 | > 1000 | < 6.00 |  |  |
| Cn1c(=O)n(C2CCC(=O)NC2=O)c2cccc(-c3cccc(CCCOCc4ccc(-n5cc(NC(=O)c6cnn7ccc(N8CCOCC8)nc67)c(C(F)F)n5)cc4)c3)c21 (stereo not shown) [I-409] | > 1000 |  | < 6.00 |  |  |
| Cn1c(=O)n(C2CCC(=O)NC2=O)c2ccc(CN3CCC(CCN4CCC(n5cc(NC(=O)c6coc(-c7ccnc(NCC8CC8)c7)n6)c(C(F)F)n5)CC4)CC3)cc21 (stereo not shown) [I-181] | 100 to 1000 |  | 6.30 to 7.00 |  |  |
| CN(CCCOCCCc1cccc2c1n(C)c(=O)n2C1CCC(=O)NC1=O)C[C@H]1CC[C@H](n2cc(NC(=O)c3cnn4ccc(N5CCOCC5)nc34)c(C(F)F)n2)CC1 (stereo partly shown) [I-259] | < 10 | < 10 | < 6.00 |  |  |
| Cn1c(=O)n(C2CCC(=O)NC2=O)c2cccc(CCCOCCCN3CCC(n4cc(NC(=O)c5cnn6ccc(N7CCNCC7)nc56)c(C(F)F)n4)CC3)c21 (stereo not shown) [I-180] | 10 to 100 |  | < 6.00 |  |  |
| Cn1c(=O)n(C2CCC(=O)NC2=O)c2ccc(CCCOC3CCN(C[C@H]4CC[C@H](n5cc(NC(=O)c6cnn7ccc(N8CCOCC8)nc67)c(C(F)F)n5)CC4)CC3)cc21 (stereo partly shown) [I-176] | 10 to 100 |  | < 6.00 |  |  |
| O=C1CCC(N2C(=O)c3cccc(NC4CCN(C5CCN(C[C@H]6CC[C@H](n7cc(NC(=O)c8cnn9ccc(N%10CCOCC%10)nc89)c(C(F)F)n7)CC6)CC5)CC4)c3C2=O)C(=O)N1 (stereo partly shown) [I-232] | < 10 |  | > 7.30 |  |  |
| CC[C@H]1C(COc2ncc(C#CC3CCC(CN(C)CCCOCCCc4cccc5c4n(C)c(=O)n5C4CCC(=O)NC4=O)CC3)c3cc(C(N)=O)c(OC)cc23)NC(=O)[C@H]1F (stereo partly shown) [I-184] | 10 to 100 | 10 to 100 | < 6.00 |  |  |
| O=C1CCC(N2C(=O)c3cccc(NCCCCC[C@@H]4CN(C[C@H]5CC[C@H](n6cc(NC(=O)c7cnn8ccc(N9C[C@H]%10C[C@@H]9CO%10)nc78)c(C(F)F)n6)CC5)CCO4)c3C2=O)C(=O)N1 (stereo partly shown) [I-460] |  |  | 7.00 to 7.30 | 100 to 1000 | 10 to 100 |
| O=C1CCC(N2C(=O)c3cccc(NCC4CC5(C4)CN(C[C@H]4CC[C@H](n6cc(NC(=O)c7cnn8ccc(N9C[C@H]%10C[C@@H]9CO%10)nc78)c(C(F)F)n6)CC4)C5)c3C2=O)C(=O)N1 (stereo partly shown) [I-461] |  |  | > 7.30 | 100 to 1000 |  |
| O=C1CCC(N2C(=O)c3cccc(NCC4CCC5(CC4)CN(C[C@H]4CC[C@H](n6cc(NC(=O)c7cnn8ccc(N9C[C@H]%10C[C@@H]9CO%10)nc78)c(C(F)F)n6)CC4)C5)c3C2=O)C(=O)N1 (stereo partly shown) [I-552] |  |  | > 7.30 | 100 to 1000 |  |
| O=C1CCC(N2C(=O)c3cccc(NCC4CC5(CCN(C(=O)[C@H]6CC[C@H](n7cc(NC(=O)c8cnn9ccc(N%10CCNCC%10)nc89)c(C(F)F)n7)CC6)CC5)C4)c3C2=O)C(=O)N1 (stereo partly shown) [I-370] | 10 to 100 |  | 6.30 to 7.00 |  |  |
| CN(C[C@H]1CN(CCCNc2cccc3c2C(=O)N(C2CCC(=O)NC2=O)C3=O)CCO1)C[C@H]1CC[C@H](n2cc(NC(=O)c3cnn4ccc(N5C[C@H]6C[C@@H]5CO6)nc34)c(C(F)F)n2)CC1 (stereo partly shown) [I-349] | 100 to 1000 | 10 to 100 | > 7.30 |  |  |
